From US4206221A, “Cephalomannine and its use in treating leukemic tumors” (priority 1979, dated 1980)
Values after ≈ are worked out from the molar mass of the structure shown. Read-outs that look alike come from different tables or passages of the source.

What was measured:
[1] = tested on: KB cell culture; test: cells; assay type: cell-based; settings: for IC50: Homo sapiens, KB, 72 h, read-out: ED 50 (dose that inhibits growth to 50% of control growth); for activity in KB cell culture (in words): assay of extract and of fractions during isolation
Experimental: The chemotherapeutic activities of the fractions obtained in the isolation procedure may be determined by a KB Cell Culture Screen in accordance with the National Cancer Institute Protocol 1.600 [Geran et al., Cancer Chemother. Rep., Part 3, 3: 17 (1972)]. […] Such a dose is referred to as ED 50 and activity is indicated for ED 50 levels of ≤30 μg./ml.

[2] = tested on: lymphocytic leukemia cells of the strain P388; test: P388 lymphocytic leukemia implanted in mice, survival time (T/C), National Cancer Institute Protocol 1.200; assay type: in vivo; settings: intraperitoneal, once a day for 9 days, female DBA/2 mice, 125% or above considered active
From the text: The effectiveness of alkaloid compounds against lymphocytic leukemia cells of the strain P388 implanted in mice is another method of determining activity. These assays are made according to the National Cancer Institute Protocol 1.200 described in Geran et al. referred to above. The usefulness of cephalomannine as compared to taxol was ascertained by assaying Fractions K263 and K264 from Example 1 by this procedure. Starting 24 hr. after the tumor implantation, previously determined dosages of each compound were injected intraperitoneally once a day for 9 days. Survival time of treated leukemic mice is compared to that of untreated leukemic mice (T/C×100). A T/C value of 100% indicated no activity. A T/C value greater than 100% means that the treated mice are surviving longer than the control mice. A compound giving a T/C value greater than 125% is indicative of activity as defined by the NCI Protocols, above.
^1 All mice were female, DBA/2.
^2 The injection vehicle was saline + Tween 80 + alcohol.
^3 One intraperitoneal injection per day for 9 days.
^4 T/C = mean survival time of test animals/mean survival time of […]

[3] = tested on: leukemia; test: activity against leukemia in animals (general statement); settings: in vivo
[4] = tested on: leukemia; settings: background, literature; cited from earlier work

SMILES | IC50 [1] | activity in KB cell culture (in words) [1] | T/C (mean survival time of test animals/mean survival time of control animals) ([2]; 1.00 mg./kg./inj.) | T/C (mean survival time of test animals/mean survival time of control animals) ([2]; 1.40 mg./kg./inj.) | T/C (mean survival time of test animals/mean survival time of control animals) ([2]; 2.20 mg./kg./inj.) | T/C (mean survival time of test animals/mean survival time of control animals) ([2]; 3.30 mg./kg./inj.) | activity against leukemia in animals (in words) [3] | IC50 ([1]; 3 days after drug addition, active if ED 50 ≤30 μg./ml.) | antileukemic / antitumor / chemotherapeutic activity (in words) [4]
CC=C(C)C(=O)NC(c1ccccc1)C(O)C(=O)O[C@H]1C[C@@]2(O)[C@@H](OC(=O)c3ccccc3)[C@@H]3[C@]4(OC(C)=O)CO[C@@H]4C[C@H](O)[C@@]3(C)C(=O)[C@H](OC(C)=O)C(=C1C)C2(C)C (single isomer, unassigned) [cephalomannine] | 3.8 ng/mL (≈ 4.57 nM) | showed activity | 152% | 159% | 162% | 180% | demonstrates activity against leukemia in animals | – | –
CC(=O)O[C@H]1C(=O)[C@@]2(C)[C@H]([C@H](OC(=O)c3ccccc3)[C@]3(O)C[C@H](OC(=O)C(O)C(NC(=O)c4ccccc4)c4ccccc4)C(C)=C1C3(C)C)[C@]1(OC(C)=O)CO[C@@H]1C[C@@H]2O (single isomer, unassigned) [taxol, reference compound] | – | showed activity | – | 148% | 152% | – | – | 1.2 ng/mL (≈ 1.41 nM) | antileukemic and antitumor agent
